Values quoted from earlier work, collected in patent US9827234B1, “Dose-dumping resistant controlled release dosage form” (OSMOTICA KERESKEDELMI ES SZOLGALTATO KFT, priority 2017, dated 2017).

Experiments:
[1] = 5 mg 3× daily, rapid release tablet

SMILES: COC(=O)C(c1ccccc1)C1CCCCN1 (centres unmarked) [Methylphenidate, methyl 2-phenyl-2-(piperidin-2-yl)acetate]
- enhance the bioavailability of MPH (consuming alcohol (ethanol), Patrick et al. 2007): up to 40%
- plasma half-life (in vivo): 2 to 3 h
- Cmax [1]: 4.2 ± 1.0 ng/mL
- Tmax [1]: 6.5 ± 1.8 h
- T½ [1]: 3.0 ± 0.5 h
